The source of these data is ChEMBL document CHEMBL5291721, “A preclinical secondary pharmacology resource illuminates target-adverse drug reaction associations of marketed drugs” (Nat Commun, 2023).

Experiment [1] deals with T1, Muscarinic acetylcholine receptor M2 (Homo sapiens, UniProt P08172).
T1 sequence (P08172 whole entry): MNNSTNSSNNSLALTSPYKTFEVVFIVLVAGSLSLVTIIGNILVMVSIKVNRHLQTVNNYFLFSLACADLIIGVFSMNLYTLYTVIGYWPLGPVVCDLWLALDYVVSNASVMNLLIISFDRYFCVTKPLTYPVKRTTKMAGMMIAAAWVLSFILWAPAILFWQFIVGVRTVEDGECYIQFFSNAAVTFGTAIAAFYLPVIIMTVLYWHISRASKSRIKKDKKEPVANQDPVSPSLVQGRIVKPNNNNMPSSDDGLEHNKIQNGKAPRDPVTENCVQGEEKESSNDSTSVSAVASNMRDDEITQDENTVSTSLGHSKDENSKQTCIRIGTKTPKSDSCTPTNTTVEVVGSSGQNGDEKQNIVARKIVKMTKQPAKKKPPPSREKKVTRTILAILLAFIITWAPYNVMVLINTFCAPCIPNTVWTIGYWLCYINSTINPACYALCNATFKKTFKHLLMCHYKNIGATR

In experiment [2] the target is Gamma-aminobutyric acid receptor subunit alpha-1/alpha-2/beta-2/gamma-2 (Homo sapiens, UniProt P14867+P18507+P47869+P47870). Type of experiment: functional, cell-based.
Experiment [3] concerns the target T2, Gastric inhibitory polypeptide receptor (Homo sapiens, UniProt P48546).
T2 sequence (P48546 whole entry): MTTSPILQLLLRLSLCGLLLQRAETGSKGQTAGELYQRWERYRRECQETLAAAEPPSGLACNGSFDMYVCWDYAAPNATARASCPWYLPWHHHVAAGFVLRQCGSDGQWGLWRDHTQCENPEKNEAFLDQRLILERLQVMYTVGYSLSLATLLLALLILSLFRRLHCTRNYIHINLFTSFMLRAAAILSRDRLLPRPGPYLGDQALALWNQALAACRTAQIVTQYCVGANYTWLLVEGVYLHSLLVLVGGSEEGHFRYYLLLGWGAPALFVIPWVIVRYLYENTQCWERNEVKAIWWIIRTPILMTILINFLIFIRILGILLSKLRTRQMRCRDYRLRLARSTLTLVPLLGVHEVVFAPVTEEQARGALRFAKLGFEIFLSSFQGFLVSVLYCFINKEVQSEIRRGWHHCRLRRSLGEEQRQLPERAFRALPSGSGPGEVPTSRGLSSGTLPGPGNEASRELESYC

Experiment [4] has as its target Beta-3 adrenergic receptor (Homo sapiens, UniProt P13945).
The target in another experiment is T3, B1 bradykinin receptor (Homo sapiens, UniProt P46663).
T3 sequence (P46663 whole entry): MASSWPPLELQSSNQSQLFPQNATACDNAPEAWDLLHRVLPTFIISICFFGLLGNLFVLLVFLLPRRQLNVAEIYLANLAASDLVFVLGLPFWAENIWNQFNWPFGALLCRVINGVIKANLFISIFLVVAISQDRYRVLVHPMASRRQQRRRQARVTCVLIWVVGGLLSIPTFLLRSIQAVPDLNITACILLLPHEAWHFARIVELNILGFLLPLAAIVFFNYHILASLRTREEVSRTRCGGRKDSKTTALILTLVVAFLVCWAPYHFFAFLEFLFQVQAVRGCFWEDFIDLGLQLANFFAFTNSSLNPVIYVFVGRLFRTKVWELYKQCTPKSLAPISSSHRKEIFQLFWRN

Experiment [5] deals with T4, Corticotropin-releasing factor receptor 2 (Homo sapiens, UniProt Q13324).
T4 sequence (Q13324 whole entry): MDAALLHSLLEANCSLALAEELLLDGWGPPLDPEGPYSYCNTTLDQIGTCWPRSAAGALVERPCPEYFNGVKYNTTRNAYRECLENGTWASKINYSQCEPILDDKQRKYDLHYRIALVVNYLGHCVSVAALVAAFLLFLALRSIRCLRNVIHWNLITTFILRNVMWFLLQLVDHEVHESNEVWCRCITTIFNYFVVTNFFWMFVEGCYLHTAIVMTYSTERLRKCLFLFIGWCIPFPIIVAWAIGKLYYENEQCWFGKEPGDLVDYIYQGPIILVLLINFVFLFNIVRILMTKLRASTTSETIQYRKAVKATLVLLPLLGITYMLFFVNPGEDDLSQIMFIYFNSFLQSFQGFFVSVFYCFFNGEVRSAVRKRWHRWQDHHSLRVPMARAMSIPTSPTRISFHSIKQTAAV

The next experiment deals with Histamine H2 receptor (Homo sapiens, UniProt P25021).
Experiment [6] concerns the target T5, Neuropeptide Y receptor type 2 (Homo sapiens, UniProt P49146).
T5 sequence (P49146 whole entry): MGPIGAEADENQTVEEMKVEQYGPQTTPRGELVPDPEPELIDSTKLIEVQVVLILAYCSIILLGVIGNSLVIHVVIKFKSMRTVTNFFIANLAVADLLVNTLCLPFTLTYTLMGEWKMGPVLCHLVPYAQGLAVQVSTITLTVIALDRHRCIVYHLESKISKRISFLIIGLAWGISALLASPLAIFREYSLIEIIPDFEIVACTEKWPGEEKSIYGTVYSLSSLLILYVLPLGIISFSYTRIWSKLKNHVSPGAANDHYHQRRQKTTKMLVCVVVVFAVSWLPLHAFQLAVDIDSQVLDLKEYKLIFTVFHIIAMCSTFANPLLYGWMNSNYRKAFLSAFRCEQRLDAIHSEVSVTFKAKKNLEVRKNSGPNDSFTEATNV

In experiment [7] the target is T6, Endothelin receptor type B (Homo sapiens, UniProt P24530).
T6 sequence (P24530 whole entry): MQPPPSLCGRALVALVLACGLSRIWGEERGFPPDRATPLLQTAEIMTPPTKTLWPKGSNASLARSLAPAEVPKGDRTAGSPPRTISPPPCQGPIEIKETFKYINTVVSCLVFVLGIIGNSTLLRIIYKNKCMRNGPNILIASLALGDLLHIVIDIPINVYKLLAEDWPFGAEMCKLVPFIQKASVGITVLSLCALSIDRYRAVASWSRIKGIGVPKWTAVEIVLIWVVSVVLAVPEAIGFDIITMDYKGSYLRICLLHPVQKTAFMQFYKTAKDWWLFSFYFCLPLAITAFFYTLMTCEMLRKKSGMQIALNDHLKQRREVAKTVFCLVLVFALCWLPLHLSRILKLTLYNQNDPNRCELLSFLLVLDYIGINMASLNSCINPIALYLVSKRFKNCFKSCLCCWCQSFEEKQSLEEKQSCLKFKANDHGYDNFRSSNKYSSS

A further experiment deals with Histamine H1 receptor (Homo sapiens, UniProt P35367). Type of experiment: functional, cell-based.
In a further experiment the target is Substance-P receptor (Homo sapiens, UniProt P25103).
Note: assay procedure not described here.

Chain of Histamine H1 receptor (P35367 whole entry): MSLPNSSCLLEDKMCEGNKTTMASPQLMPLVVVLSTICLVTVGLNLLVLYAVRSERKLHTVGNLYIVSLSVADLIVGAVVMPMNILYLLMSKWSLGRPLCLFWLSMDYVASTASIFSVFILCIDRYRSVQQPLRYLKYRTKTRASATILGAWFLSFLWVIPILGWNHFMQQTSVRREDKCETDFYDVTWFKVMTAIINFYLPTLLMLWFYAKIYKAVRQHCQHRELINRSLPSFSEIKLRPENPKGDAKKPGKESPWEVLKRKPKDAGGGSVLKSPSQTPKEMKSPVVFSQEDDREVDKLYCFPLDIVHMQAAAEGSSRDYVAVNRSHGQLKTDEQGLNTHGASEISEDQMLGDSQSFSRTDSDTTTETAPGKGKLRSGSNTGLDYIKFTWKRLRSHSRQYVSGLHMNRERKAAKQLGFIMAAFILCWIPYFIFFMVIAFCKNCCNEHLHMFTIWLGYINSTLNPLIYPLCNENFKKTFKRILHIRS
Chain of Substance-P receptor (P25103 whole entry): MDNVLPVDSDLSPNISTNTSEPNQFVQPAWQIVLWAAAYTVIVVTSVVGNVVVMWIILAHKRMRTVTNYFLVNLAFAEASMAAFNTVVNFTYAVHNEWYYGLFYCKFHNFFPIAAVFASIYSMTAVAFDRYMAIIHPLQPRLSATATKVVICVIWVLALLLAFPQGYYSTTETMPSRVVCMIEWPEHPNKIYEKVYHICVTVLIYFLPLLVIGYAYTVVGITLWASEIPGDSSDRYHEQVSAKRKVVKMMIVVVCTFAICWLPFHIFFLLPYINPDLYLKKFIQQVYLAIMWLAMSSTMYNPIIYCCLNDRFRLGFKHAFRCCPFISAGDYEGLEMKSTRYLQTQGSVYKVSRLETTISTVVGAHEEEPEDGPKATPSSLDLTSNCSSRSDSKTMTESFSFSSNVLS
Chain of Beta-3 adrenergic receptor (P13945 whole entry): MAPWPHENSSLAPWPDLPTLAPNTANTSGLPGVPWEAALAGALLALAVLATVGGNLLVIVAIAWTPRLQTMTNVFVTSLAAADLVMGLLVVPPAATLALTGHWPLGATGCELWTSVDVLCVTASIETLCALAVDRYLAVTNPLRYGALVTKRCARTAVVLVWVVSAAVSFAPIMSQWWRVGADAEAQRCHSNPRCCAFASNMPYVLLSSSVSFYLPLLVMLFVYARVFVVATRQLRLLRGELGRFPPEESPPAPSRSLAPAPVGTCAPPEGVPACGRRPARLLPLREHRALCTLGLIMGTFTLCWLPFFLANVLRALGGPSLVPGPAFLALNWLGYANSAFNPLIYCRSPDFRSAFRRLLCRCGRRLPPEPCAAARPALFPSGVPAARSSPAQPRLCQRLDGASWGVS
Chain of Histamine H2 receptor (P25021 whole entry): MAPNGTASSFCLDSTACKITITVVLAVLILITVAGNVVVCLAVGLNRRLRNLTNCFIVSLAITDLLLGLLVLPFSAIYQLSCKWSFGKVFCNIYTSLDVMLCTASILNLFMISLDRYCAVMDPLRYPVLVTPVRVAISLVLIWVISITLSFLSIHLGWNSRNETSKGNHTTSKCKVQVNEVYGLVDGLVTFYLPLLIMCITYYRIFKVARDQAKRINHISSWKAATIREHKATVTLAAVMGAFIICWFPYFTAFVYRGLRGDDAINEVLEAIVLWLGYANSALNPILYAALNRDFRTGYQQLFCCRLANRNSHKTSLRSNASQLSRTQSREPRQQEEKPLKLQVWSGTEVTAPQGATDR
Chain of Gamma-aminobutyric acid receptor subunit alpha-1/alpha-2/beta-2/gamma-2 (P14867 whole entry): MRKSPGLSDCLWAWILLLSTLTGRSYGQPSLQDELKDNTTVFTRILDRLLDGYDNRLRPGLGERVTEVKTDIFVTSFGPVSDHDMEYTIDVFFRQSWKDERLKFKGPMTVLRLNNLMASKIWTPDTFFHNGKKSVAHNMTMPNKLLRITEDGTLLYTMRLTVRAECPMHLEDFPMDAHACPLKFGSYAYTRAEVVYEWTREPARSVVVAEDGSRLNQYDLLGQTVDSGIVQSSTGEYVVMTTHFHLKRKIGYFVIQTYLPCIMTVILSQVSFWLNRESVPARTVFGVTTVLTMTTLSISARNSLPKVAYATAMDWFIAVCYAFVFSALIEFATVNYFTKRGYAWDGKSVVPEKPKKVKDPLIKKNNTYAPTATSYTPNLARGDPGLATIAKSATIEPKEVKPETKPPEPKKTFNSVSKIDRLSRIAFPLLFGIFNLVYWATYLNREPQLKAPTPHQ
Chain of Gamma-aminobutyric acid receptor subunit alpha-1/alpha-2/beta-2/gamma-2 (P47870 whole entry): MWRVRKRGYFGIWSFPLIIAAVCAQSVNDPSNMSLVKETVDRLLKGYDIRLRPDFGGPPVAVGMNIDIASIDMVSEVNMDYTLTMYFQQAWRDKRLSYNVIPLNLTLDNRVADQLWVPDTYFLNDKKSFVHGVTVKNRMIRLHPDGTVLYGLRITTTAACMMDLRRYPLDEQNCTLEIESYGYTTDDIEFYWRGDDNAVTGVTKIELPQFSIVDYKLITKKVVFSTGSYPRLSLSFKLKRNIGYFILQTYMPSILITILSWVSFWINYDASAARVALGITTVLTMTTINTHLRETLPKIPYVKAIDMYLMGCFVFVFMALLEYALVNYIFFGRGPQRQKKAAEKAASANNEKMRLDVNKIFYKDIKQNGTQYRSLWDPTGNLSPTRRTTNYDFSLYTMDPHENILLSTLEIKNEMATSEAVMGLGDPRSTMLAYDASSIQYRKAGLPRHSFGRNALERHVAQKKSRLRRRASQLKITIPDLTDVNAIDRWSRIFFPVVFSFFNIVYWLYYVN
Chain of Gamma-aminobutyric acid receptor subunit alpha-1/alpha-2/beta-2/gamma-2 (P18507 whole entry): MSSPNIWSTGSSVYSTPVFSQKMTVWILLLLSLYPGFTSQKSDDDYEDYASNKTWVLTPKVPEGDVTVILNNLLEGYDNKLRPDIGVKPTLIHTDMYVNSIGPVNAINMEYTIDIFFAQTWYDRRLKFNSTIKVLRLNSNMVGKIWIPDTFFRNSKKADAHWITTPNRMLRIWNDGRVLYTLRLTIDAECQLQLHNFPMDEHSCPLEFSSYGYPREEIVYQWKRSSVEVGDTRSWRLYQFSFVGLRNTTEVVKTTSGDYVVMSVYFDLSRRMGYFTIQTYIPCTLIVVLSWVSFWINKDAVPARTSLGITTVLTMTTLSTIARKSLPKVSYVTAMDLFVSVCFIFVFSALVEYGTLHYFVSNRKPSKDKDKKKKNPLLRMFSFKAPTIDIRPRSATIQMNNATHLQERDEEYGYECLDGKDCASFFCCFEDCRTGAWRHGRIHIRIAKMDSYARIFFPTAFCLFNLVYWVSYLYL
Chain of Gamma-aminobutyric acid receptor subunit alpha-1/alpha-2/beta-2/gamma-2 (P47869 whole entry): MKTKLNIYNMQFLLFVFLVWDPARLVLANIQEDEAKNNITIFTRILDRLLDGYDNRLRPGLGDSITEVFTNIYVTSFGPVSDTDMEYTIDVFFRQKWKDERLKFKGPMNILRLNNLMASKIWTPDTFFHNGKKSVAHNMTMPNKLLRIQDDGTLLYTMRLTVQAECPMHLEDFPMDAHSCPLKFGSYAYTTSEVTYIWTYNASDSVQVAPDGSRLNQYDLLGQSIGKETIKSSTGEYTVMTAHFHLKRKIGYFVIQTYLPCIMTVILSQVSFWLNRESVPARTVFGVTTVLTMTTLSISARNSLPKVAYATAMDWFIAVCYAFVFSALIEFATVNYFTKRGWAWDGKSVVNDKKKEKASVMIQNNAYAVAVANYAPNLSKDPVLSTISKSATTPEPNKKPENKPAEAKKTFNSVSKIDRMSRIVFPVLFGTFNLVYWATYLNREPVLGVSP

The compound `C[N+]12CCC(CC1)C(OC(=O)C(O)(c1ccccc1)c1ccccc1)C2` (stereo unspecified) displayed a concentration at half-maximal activity (AC50) in experiment [1] of 0.0032 µM.
As for `CO/N=C(\C(=O)N[C@@H]1C(=O)N2C(C(=O)O)=C(CSc3nc(=O)c(=O)[nH]n3C)CS[C@H]12)c1csc(N)n1` [CEFTRIAXONE], the AC50 in [2] is > 30 µM.
As for `COc1cc(N)c(Cl)cc1C(=O)NC1CCN(CCCOc2ccc(F)cc2)CC1OC` (stereo unspecified) [CISAPRIDE], the AC50 in experiment [3] was > 30 µM; in [4], > 30 µM; on B1 bradykinin receptor, > 30 µM; in experiment [5], > 30 µM; in [1] it was > 10 µM; at Histamine H2 receptor it was > 10 µM. Further, the AC50 in experiment [6] and in experiment [7] was > 30 µM throughout.
On to `CC(CN(C)C)C(C)(O)Cc1ccc(Cl)cc1` (stereo unspecified) [CLOBUTINOL], for which, at Histamine H1 receptor, the AC50 was > 30 µM.
On to `CCOC(=O)C(C)(C)Oc1ccc(Cl)cc1` [CLOFIBRATE], for which the AC50 in experiment [3] was > 30 µM; in [4], > 30 µM; at B1 bradykinin receptor, > 30 µM; in [5], > 30 µM; in experiment [1], > 10 µM; in [6], > 30 µM. In addition, the AC50 in [7] is > 30 µM.
As for `CCCCOc1ccc(C(=O)CCN2CCCCC2)cc1` [DYCLONINE], the AC50 at Substance-P receptor is > 10 µM; in experiment [3] it was > 30 µM; in [4], > 30 µM; at B1 bradykinin receptor, > 30 µM; in experiment [5], > 30 µM; on Histamine H1 receptor, > 30 µM. For the same compound, the AC50 was 2.81 µM in experiment [1], 3.13 µM on Histamine H2 receptor, > 30 µM in [6] and > 30 µM in experiment [7].
Turning to `CC(C)NC[C@H](O)COc1ccc(CC(N)=O)cc1` [ESATENOLOL], the AC50 is > 10 µM at Substance-P receptor; > 30 µM in experiment [3]; > 30 µM at B1 bradykinin receptor; > 30 µM in [5]; > 10 µM at Histamine H2 receptor; > 30 µM in experiment [6]. Also, the AC50 in experiment [7] is > 30 µM.
With `NNC(=O)c1ccncc1` [ISONIAZID], the AC50 was > 10 µM at Substance-P receptor; > 30 µM in [3]; > 30 µM in experiment [4]; > 30 µM on B1 bradykinin receptor; > 30 µM in experiment [5]; > 10 µM on Histamine H2 receptor. The AC50 in [6] and in experiment [7] was > 30 µM each time.
As to `O=C1Nc2ccc(Cl)cc2C(c2ccccc2Cl)=NC1O` (stereo unspecified) [LORAZEPAM], the half-maximal activity concentration (AC50) on Substance-P receptor is > 10 µM; in experiment [3], > 30 µM; in experiment [4], > 30 µM; at B1 bradykinin receptor, > 30 µM; in experiment [5] it was > 30 µM; in [1] it was > 10 µM. The AC50 at Histamine H2 receptor was > 10 µM; in [6], > 30 µM; in experiment [7] it was > 30 µM.
Consider `Cc1ccnc2c1NC(=O)c1cccnc1N2C1CC1` [NEVIRAPINE], for which the AC50 on Substance-P receptor was > 10 µM; in experiment [3], > 30 µM; in [4], > 30 µM; at B1 bradykinin receptor it was > 30 µM; in experiment [5] it was > 30 µM; in experiment [1], > 10 µM. Besides, the AC50 was > 10 µM at Histamine H2 receptor, > 30 µM in experiment [6] and > 30 µM in [7].
For `O=C(NCCO[N+](=O)[O-])c1cccnc1` [NICORANDIL], the AC50 (on Histamine H1 receptor; in experiment [2]) was > 30 µM each time.
Take `CO[C@H]1C[C@H](O[C@H]2CC[C@@]3(C)[C@H](CC[C@@H]4[C@@H]3CC[C@]3(C)[C@@H](C5=CC(=O)OC5)[C@@H](OC(C)=O)C[C@]43O)C2)O[C@@H](C)[C@@H]1O` [OLEANDRIN]: the AC50 in [2] was > 30 µM.
On to `O=c1[nH]c2ccccc2n1CCCN1CCN(C(c2ccccc2)c2ccccc2)CC1` [OXATOMIDE], for which the AC50 (on Histamine H1 receptor; in experiment [2]) was > 30 µM throughout.
In the case of `COc1cc2[nH]c(C)c(CCN3CCN(c4ccccc4)CC3)c2cc1OC` [OXYPERTINE], the AC50 (at Histamine H1 receptor; in experiment [2]) was > 30 µM in each case.
Take `Fc1ccc([C@@H]2CCNC[C@H]2COc2ccc3c(c2)OCO3)cc1` [PAROXETINE]: the AC50 (in experiment [3]; in [4]; on B1 bradykinin receptor; in experiment [5]; in [6]; in experiment [7]) was > 30 µM each time.
For the compound `c1ccc(C2(N3CCCCC3)CCCCC2)cc1` [PHENCYCLIDINE], in [2], the AC50 was > 30 µM.
`COc1cc(C(=O)OCc2cccc(COC(=O)c3cc(OC)c(OC)c(OC)c3)n2)cc(OC)c1OC` [PIROZADIL]: the AC50 (on Histamine H1 receptor; in experiment [2]) was > 30 µM throughout.
Take `CCC(=O)O[C@](Cc1ccccc1)(c1ccccc1)[C@H](C)CN(C)C` [PROPOXYPHENE]: the AC50 was > 10 µM at Substance-P receptor; > 30 µM in experiment [3]; > 30 µM in experiment [4]; > 30 µM at B1 bradykinin receptor; > 30 µM in experiment [5]; > 10 µM in [1]. The AC50 at Histamine H2 receptor is 4.95 µM; in [6] it was > 30 µM; in experiment [7] it was > 30 µM.
Turning to `O=c1c(O)c(-c2ccc(O)c(O)c2)oc2cc(O)cc(O)c12` [QUERCETIN], the AC50 is > 30 µM in experiment [3]; > 30 µM at B1 bradykinin receptor; > 30 µM in experiment [5]; > 10 µM in experiment [1]; > 10 µM at Histamine H2 receptor; > 30 µM in experiment [6]. For the same compound, the AC50 in experiment [7] was > 30 µM.
`CCN1CCCC1CNC(=O)c1cc(S(=O)(=O)CC)ccc1OC` (stereo unspecified) [SULTOPRIDE]: the AC50 (on Histamine H1 receptor; in experiment [2]) was > 30 µM throughout.
Regarding `CCOC(=O)[C@@H](N)Cc1ccc(-c2cc(O[C@H](c3ccc(Cl)cc3-n3ccc(C)n3)C(F)(F)F)nc(N)n2)cc1` [TELOTRISTAT ETHYL], in experiment [2], the AC50 is > 30 µM.

A word on the AC50: it is the concentration giving half of the maximal activity seen. Low readings indicate greater potency, high ones weaker potency.
